Laboratory results: patent publication US12685311B2, “Environmentally friendly biocidal quaternized amine compound” (Baker Hughes Oilfield Operations LLC, priority 2023, dated 2026)

System: microbial population (oilfield produced waters containing a range of microbes)
Assay: ATP quantification of oilfield produced waters after biocide treatment
Type: cell-based
Details: 400 ppm, after four hours, oilfield produced waters amended with nutrients, versus untreated control
Protocol: Laboratory tests were performed to observe the environmentally friendly biocide of one embodiment for its ability to reduce microbial populations. The performance of the environmentally friendly biocide was further compared with that of two non-biodegradable biocidal quaternary amine compounds: alkyldimethylbenxylammonium chloride (ADBAC) and didecyldimethylammonium chloride (DDAC).
Test bottles were prepared with oilfield produced waters amended with nutrients containing a range of microbes. These bottles were treated with 400 ppm of either di(dimethyl(alkyl)ammonium chloride) ethanoyloxy-oxo, ADBAC, or DDAC, with one test bottle left as an untreated control. After four hours, ATP quantification and serial dilution using Modified Postgate's B media were performed for the various test bottles.

Row | Molecule | reduction of the microbial population via ATP [%]
1 | CCCCCCCCCC[N+](C)(C)CCCCCCCCCC.[Cl-] [DDAC, didecyldimethylammonium chloride] | 99.06
2 | alkyldimethylbenxylammonium chloride [ADBAC] | 99.16
3 | di(dimethyl(alkyl)ammonium chloride) ethanoyloxy-oxo | 96.79
